Structures can show the parent of a compound that is named as a salt.
Assay: collision cross section in nitrogen (drift tube, single-field); higher = larger gas-phase ion size
[1] = ion type: [M+H], ion source: APCI, ion mode: Positive
[2] = ion type: [M+H], ion source: ESI, ion mode: Positive
[3] = ion type: [M+Na], ion source: ESI, ion mode: Positive
[4] = ion type: [M-H], ion source: ESI, ion mode: Negative
[5] = ion type: [M+], ion source: APCI, ion mode: Positive
[6] = ion source: APCI, ion mode: Positive, ion type: [M]+ (permanent cation)
[7] = ion source: ESI, ion mode: Positive, ion type: [M]+ (permanent cation)
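Note: chemical standards at 10 µM analysed by drift tube IMS-QTOF MS in about 3.95 torr nitrogen, mean of duplicate injections differing ≤1%, mass error below 10 ppm.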

Row | Structure (SMILES) | collision cross section in nitrogen [1] | collision cross section in nitrogen [2] | collision cross section in nitrogen [3] | collision cross section in nitrogen [4] | other results
1 | CC(C)NCC(O)COc1cccc2ccccc12 (stereo not given) [Propranolol hydrochloride] | 162.5 Å² | 162.8 Å² | 167.7 Å² | – | –
2 | CCCCCCCCC(=O)OCC(C)OC(=O)CCCCCCCC (stereo not given) [Propylene glycol dipelargonate] | – | – | 207.9 Å² | – | –
3 | CCCOC(=O)c1ccc(O)cc1 [Propylparaben] | – | – | – | 142.9 Å² | –
4 | C#CC(C)(C)NC(=O)c1cc(Cl)cc(Cl)c1 [Propyzamide] | 157.9 Å² | – | – | 157.3 Å² | –
5 | OC(Cc1ccccc1Cl)(Cn1nc[nH]c1=S)C1(Cl)CC1 (stereo not given) [Prothioconazole] | – | – | 174.4 Å² | 171 Å² | –
6 | O=C1c2ccccc2C(=O)c2c(O)c(O)cc(O)c21 [Purpurin] | – | – | – | 149 Å² | –
7 | CC1=NNC(=O)N(/N=C/c2cccnc2)C1 [Pymetrozine] | 154.8 Å² | 154.2 Å² | 155.8 Å² | – | –
8 | COC(=O)N(OC)c1ccccc1COc1ccn(-c2ccc(Cl)cc2)n1 [Pyraclostrobin] | 184.5 Å² | 183.8 Å² | 195.5 Å² | – | –
9 | CCOC(=O)COc1cc(-c2nn(C)c(OC(F)F)c2Cl)c(F)cc1Cl [Pyraflufen-ethyl] | – | 188 Å² | 198.4 Å² | – | –
10 | CCOC(=O)c1cn2nc(OP(=S)(OCC)OCC)cc2nc1C [Pyrazophos] | 192.5 Å² | 191.7 Å² | 195.9 Å² | – | –
11 | c1cc2ccc3cccc4ccc(c1)c2c34 [Pyrene] | – | – | – | – | collision cross section in nitrogen [5]: 136.3 Å²
12 | CC(C)(C)c1ccc(CSc2cnn(C(C)(C)C)c(=O)c2Cl)cc1 [Pyridaben] | – | – | 208.8 Å² | – | –
13 | FC(F)(F)c1ccc(OCCCOc2c(Cl)cc(OCC=C(Cl)Cl)cc2Cl)nc1 [Pyridalyl] | 203 Å² | 203.8 Å² | 215 Å² | – | –
14 | Cc1ncc(CO)c(CO)c1O [Pyridoxine hydrochloride] | 133.7 Å² | – | 144 Å² | 133.3 Å² | –
15 | Cc1ncc(CO)c(CO)c1O [Pyridoxine] | 133.7 Å² | 134.6 Å² | – | 133.2 Å² | –
16 | CCc1nc(N)nc(N)c1-c1ccc(Cl)cc1 [Pyrimethamine] | 158.8 Å² | 159.4 Å² | – | – | –
17 | Cc1cc(C)nc(Nc2ccccc2)n1 [Pyrimethanil] | 143.4 Å² | 143.8 Å² | – | – | –
18 | CC(COc1ccc(Oc2ccccc2)cc1)Oc1ccccn1 (stereo not given) [Pyriproxyfen] | 184.3 Å² | 184.3 Å² | 185.4 Å² | – | –
19 | COc1cc(OC)nc(Sc2cccc(Cl)c2C(=O)O)n1 [Pyrithiobac sodium] | 166.7 Å² | 166.6 Å² | 173.5 Å² | – | –

Row | Structure (SMILES) | collision cross section in nitrogen [1] | collision cross section in nitrogen [2] | collision cross section in nitrogen [3] | collision cross section in nitrogen [4] | other results
20 | COc1cc(OC)nc(Sc2cccc(Cl)c2C(=O)O)n1 [Pyrithiobac] | 167.1 Å² | 166.7 Å² | 173.3 Å² | – | –
21 | CCCCCCCCCCCCCCCC[N+](C)(C)CC [Quaternium 17] | – | – | – | – | collision cross section in nitrogen [6]: 196.1 Å²; collision cross section in nitrogen [7]: 197.2 Å²
22 | O=c1c(O)c(-c2ccc(O)c(O)c2)oc2cc(O)cc(O)c12 [Quercetin] | – | – | – | 164.7 Å² | –
23 | OCCOCCN1CCN(C2=Nc3ccccc3Sc3ccccc32)CC1 [Quetiapine fumarate] | 192.1 Å² | 192.3 Å² | 188.6 Å² | 183.5 Å² | –
24 | O=C1c2ccc(O)c(O)c2C(=O)c2c(O)ccc(O)c21 [Quinalizarin] | – | – | – | 150.5 Å² | –
25 | O=C(O)c1c(Cl)ccc2cc(Cl)cnc12 [Quinclorac] | – | 142.6 Å² | – | – | –
26 | Cc1cnc2c(C(=O)O)c(Cl)ccc2c1 [Quinmerac] | 139.6 Å² | 140.7 Å² | 158 Å² | – | –
27 | c1ccc2ncccc2c1 [Quinoline] | 120.8 Å² | – | – | – | –
28 | Fc1ccc(Oc2ccnc3cc(Cl)cc(Cl)c23)cc1 [Quinoxyfen] | 165.8 Å² | 165.5 Å² | – | – | –
29 | COCCCOc1ccnc(CS(=O)c2nc3ccccc3[nH]2)c1C (stereo not given) [Rabeprazole sodium] | 189.4 Å² | – | 179.5 Å² | – | collision cross section in nitrogen [5]: 187.8 Å²
30 | O=C(c1ccc(OCCN2CCCCC2)cc1)c1c(-c2ccc(O)cc2)sc2cc(O)ccc12 [Raloxifene hydrochloride] | 215.7 Å² | 215.2 Å² | 220.7 Å² | 213.4 Å² | –
31 | CNC(=C[N+](=O)[O-])NCCSCc1ccc(CN(C)C)o1 [Ranitidine] | 169.2 Å² | 169 Å² | 176.2 Å² | 179.5 Å² | –
32 | COC(=O)[C@H]1[C@H]2C[C@@H]3c4[nH]c5cc(OC)ccc5c4CCN3C[C@H]2C[C@@H](OC(=O)c2cc(OC)c(OC)c(OC)c2)[C@@H]1OC [Reserpine] | – | – | – | – | collision cross section in nitrogen [5]: 242.8 Å²
33 | CC(C)=CC1C(C(=O)OCc2coc(Cc3ccccc3)c2)C1(C)C (stereo not given) [Resmethrin] | – | – | 177.8 Å² | – | –
34 | O=C(Oc1cccc(O)c1)c1ccccc1 [Resorcinol monobenzoate] | – | – | – | 152.9 Å² | –
35 | Oc1cccc(O)c1 [Resorcinol] | – | – | – | 118.9 Å² | –
36 | Oc1ccc(/C=C/c2cc(O)cc(O)c2)cc1 [Resveratrol] | – | – | – | 159.3 Å² | collision cross section in nitrogen [5]: 155.1 Å²
37 | CCNc1cc2[o+]c3cc(NCC)c(C)cc3c(-c3ccccc3C(=O)OCC)c2cc1C [Rhodamine 6G] | – | – | – | – | collision cross section in nitrogen [6]: 218.3 Å²; collision cross section in nitrogen [7]: 218.9 Å²
38 | CCN(CC)c1ccc2c(-c3ccccc3C(=O)O)c3ccc(N(CC)CC)cc3[o+]c2c1 [Rhodamine B] | – | – | – | – | collision cross section in nitrogen [7]: 218.1 Å²

Row | Structure (SMILES) | collision cross section in nitrogen [1] | collision cross section in nitrogen [2] | collision cross section in nitrogen [3] | collision cross section in nitrogen [4] | other results
39 | COc1ccn(C)c(=O)c1C#N [Ricinine] | 132.2 Å² | 132.4 Å² | 143 Å² | – | –
40 | CO[C@H]1/C=C/O[C@@]2(C)Oc3c(C)c(O)c4c(O)c(c(/C=N/N5CCN(C)CC5)c(O)c4c3C2=O)NC(=O)/C(C)=C\C=C\[C@H](C)[C@H](O)[C@@H](C)[C@@H](O)[C@@H](C)[C@H](OC(C)=O)[C@@H]1C [Rifampicin] | – | 282.3 Å² | 279 Å² | – | –
41 | O=C(CCCCCCCCc1cccnc1)N1CCC(C=C(c2ccccc2)c2ccccc2)CC1 [Ro 23-7637] | 239.1 Å² | 238 Å² | 242.7 Å² | – | –
42 | COc1cc(C(=O)NC2CCN(C)CC2)ccc1Nc1ncc2c(n1)N(C1CCCC1)CC(F)(F)C(=O)N2C [Ro 3280] | 250.9 Å² | 250.7 Å² | 262.3 Å² | 236.7 Å² | –
43 | CS(=O)(=O)c1ccc(C2=C(c3ccccc3)C(=O)OC2)cc1 [Rofecoxib] | – | – | – | 174.4 Å² | –
44 | Cn1c([N+](=O)[O-])cnc1COC(N)=O [Ronidazole] | – | – | 143.1 Å² | – | –
45 | CN(CCOc1ccc(CC2SC(=O)NC2=O)cc1)c1ccccn1 (stereo not given) [Rosiglitazone maleate] | 172.4 Å² | 172.5 Å² | 182.7 Å² | 176.3 Å² | –
46 | C=C(C)[C@H]1Cc2c(ccc3c2O[C@@H]2COc4cc(OC)c(OC)cc4[C@@H]2C3=O)O1 [Rotenone] | – | 194.8 Å² | 207.3 Å² | 199 Å² | –
47 | CC[C@H]1OC(=O)[C@H](C)[C@@H](O[C@H]2C[C@@](C)(OC)[C@@H](O)[C@H](C)O2)[C@H](C)[C@@H](O[C@@H]2O[C@H](C)C[C@H](N(C)C)[C@H]2O)[C@](C)(O)C[C@@H](C)C(=NOCOCCOC)[C@H](C)[C@@H](O)[C@]1(C)O [Roxithromycin] | 277.7 Å² | 276.9 Å² | 280.7 Å² | 282.3 Å² | collision cross section in nitrogen [5]: 276.3 Å²
48 | C=CCC1=C(C)[C@@H](OC(=O)[C@@H]2[C@@H](C=C(C)C)C2(C)C)CC1=O [S-Bioallethrin] | – | – | 184.5 Å² | – | –
49 | CCc1cccc(C)c1N(C(=O)CCl)[C@@H](C)COC [S-Metolachlor] | 159.5 Å² | 160.1 Å² | 172.5 Å² | – | –
50 | Cc1cc(C)c(C=C2C(=O)Nc3ccccc32)[nH]1 [SU-5416] | 153.9 Å² | 154.2 Å² | – | 158.4 Å² | collision cross section in nitrogen [5]: 152.2 Å²
51 | O=C1NS(=O)(=O)c2ccccc21 [Saccharin] | – | – | – | 131.1 Å² | –
52 | NC(=O)c1ccccc1O [Salicylamide] | – | – | – | 122.2 Å² | –
53 | O=C(Nc1ccccc1)c1ccccc1O [Salicylanilide] | 144.8 Å² | – | – | 145.5 Å² | –
54 | O=C(NO)c1ccccc1O [Salicylhydroxamic acid] | – | – | – | 124.5 Å² | –
55 | O=C(O)c1ccccc1O [Salicylic acid] | – | – | – | 121.2 Å² | –
56 | O=C(O)c1cn(-c2ccc(F)cc2)c2cc(N3CCNCC3)c(F)cc2c1=O [Sarafloxacin] | 188.2 Å² | 188.3 Å² | 204.8 Å² | – | –
57 | C=C[C@](C)(O)CC[C@@H]1[C@@]2(C)CCCC(C)(C)[C@@H]2CC[C@@]1(C)O [Sclareol] | – | – | 189.2 Å² | 178.9 Å² | –
